Assay results reported in US20250186597A1, “TARGETED IMMUNE ACTIVATION WITH IL-18 IMMUNOCYTOKINES” (BRIGHT PEAK THERAPEUTICS AG, priority 2023, published 2025).

Tested on: PD-1positive transduced NK-92 cells
Test: IL-18BP mediated inhibition of IFN gamma secretion in PD-1 positive transduced NK-92 cells (Example 18)
Format: cell-based, human
Protocol: To characterize the resistance of anti-PD1-IL18 immunocytokines (IC) on PD-1 positive cells, the NK-92 cell line was used to generate a PD-1 expressing cell line and furthermore, to measure the inhibition of IFN[…] release upon incubation with IL-18 variants and ICs in the presence of increasing quantities of human IL-18BP.
On the day of experiment, parental PD-1^negative and PD-1^positive transduced cells were harvested and washed with PBS 1× and resuspended in medium (w/o IL-2) containing 1 ng/ml of recombinant human Interleukin-12 (SinoBiologicals, Cat #CT011-H08H). After counting, cells were seeded at 100 000 cells/well in a 384 well culture plate and incubated at 37° C./5% CO2. When indicated, cells were preincubated with anti-PD-1 antibody LZM-009 at 17 uM during 30 min at 37° C. […]
After 16-20 h incubation at 37° C./5% CO2, 5 μl of supernatant were carefully transferred to a 384 microwell OptiIPlate (Perkin Elmer; Cat #6007270) and Interferon-gamma (IFNγ) levels measured using the Human IFNγ AlphaLISA Assay Kit (Perkin Elmer, Cat #AL217C). […] AlphaLISA signal was then measured on an Enspire plate reader (Perkin Elmer) using 680 and 615 nm as excitation and emission wavelengths respectively. Half maximal inhibitory concentration (IC50) was calculated based on a variable slope, four parameter analysis using GraphPad PRISM software.

Question: With “SEQ ID NO: 1: Native sequence of human IL-18 (bioactive form) [reference compound]” as the substance, how does the IC50 (IL-18BP-mediated inhibition of IFNγ secretion, IL-18 analyte 1 nM) read?
Answer: 2.67 nM

Question: And the “PD-1^pos/PD-1^neg IC50 ratio” value (NK-92 cells)?
Answer: 1.2
